Data taken from patent publication US20130005568A1, “SAFENED HERBICIDAL MIXTURES” (E.I. DU PONT DE NEMOURS AND COMPANY, priority 2011, published 2013).

How the values were obtained:
Experiment in all cases: Test G: turf grass and weed postemergence plant response rating
[1] = test system: Zoysia grass; format: in vivo, Zoysia japonica Steud.; conditions: Zoysia grass, postemergence, greenhouse, three weeks, 0-100 scale
Text: (§1) For all of the following biological tests, plant response ratings were based on a 0-100 scale where zero is growth equivalent to that of untreated plants (no plant response) and 100 represents no additional growth occurring after herbicide treatment.
(§2) Plants of the turf grass species: zoysia (Zoysia japonica Steud.), bermudagrass (Cynodon dactylon (L.) Pers.), tall fescue (Festuca arundinacea Shreib.), creeping bentgrass (Agrostis stoonoifera L.), perennial ryegrass (Lolium perenne L.) and hard fescue (Festuca species) were grown under greenhouse conditions for four months. Plants were clipped as needed to plant heights of 5-10 cm. Weeds typically found in turf: annual bluegrass (Poa annua L.), common chickweed (Stellaria media (L.) Vill.), large crabgrass (Digitaria sanguinales (L.) Scop.), dandelion (Taraxacum officinale Weber in Wiggers), goosegrass (Eleusine indica (L.) Gaertn.), henbit (Lamium amplexicaule L.), venice mallow (Hibiscus trionium L.) and purple nutsedge (Cyperus rotundus L.) were also grown under greenhouse conditions so that plants were 5-20 cm tall when they were treated. Herbicide mixtures were formulated, dissolved/dispersed in water containing 0.25% non-ionic surfactant, and sprayed postemergence to these turf grasses and weeds. Treated plants were grown under greenhouse conditions for three weeks before visual evaluations of plant responses were recorded.

[2] = test system: Bermudagrass; format: in vivo, Cynodon dactylon (L.) Pers.; conditions: Bermudagrass, postemergence, greenhouse, three weeks, 0-100 scale
Text: as §1
Plants of the turf grass species: zoysia (Zoysia japonica Steud.), bermudagrass (Cynodon dactylon (L.) Pers.), tall fescue (Festuca arundinacea Shreib.), creeping bentgrass (Agrostis stoonoifera L.), perennial ryegrass (Lolium perenne L.) and hard fescue (Festuca species) were grown under greenhouse conditions for four months. Plants were clipped as needed to plant heights of 5-10 cm. […] Herbicide mixtures were formulated, dissolved/dispersed in water containing 0.25% non-ionic surfactant, and sprayed postemergence to these turf grasses and weeds. Treated plants were grown under greenhouse conditions for three weeks before visual evaluations of plant responses were recorded.

[3] = test system: Tall fescue; format: in vivo, Festuca arundinacea Shreib.; conditions: Tall fescue, postemergence, greenhouse, three weeks, 0-100 scale
Text: as §1, §2

[4] = test system: Hard fescue; format: in vivo, Festuca species; conditions: Hard fescue, postemergence, greenhouse, three weeks, 0-100 scale
Text: as §1, §2

[5] = test system: Creeping bentgrass; format: in vivo, Agrostis stoonoifera L.; conditions: Creeping bentgrass, postemergence, greenhouse, three weeks, 0-100 scale
Text: as §1, §2

[6] = test system: Perennial ryegrass; format: in vivo, Lolium perenne L.; conditions: Perennial ryegrass, postemergence, greenhouse, three weeks, 0-100 scale
Text: as §1, §2

[7] = test system: Annual bluegrass; format: in vivo, Poa annua L.; conditions: Annual bluegrass, postemergence, greenhouse, three weeks, 0-100 scale
Text: as §1, §2

[8] = test system: Chickweed; format: in vivo, Stellaria media (L.) Vill.; conditions: Chickweed, postemergence, greenhouse, three weeks, 0-100 scale
Text: as §1, §2

[9] = test system: Large crabgrass; format: in vivo, Digitaria sanguinales (L.) Scop.; conditions: Large crabgrass, postemergence, greenhouse, three weeks, 0-100 scale
Text: as §1, §2

[10] = test system: Dandelion; format: in vivo, Taraxacum officinale Weber in Wiggers; conditions: Dandelion, postemergence, greenhouse, three weeks, 0-100 scale
Text: as §1, §2

[11] = test system: Goosegrass; format: in vivo, Eleusine indica (L.) Gaertn.; conditions: Goosegrass, postemergence, greenhouse, three weeks, 0-100 scale
Text: as §1, §2

[12] = test system: Henbit; format: in vivo, Lamium amplexicaule L.; conditions: Henbit, postemergence, greenhouse, three weeks, 0-100 scale
Text: as §1, §2

[13] = test system: Venice mallow; format: in vivo, Hibiscus trionium L.; conditions: Venice mallow, postemergence, greenhouse, three weeks, 0-100 scale
Text: as §1, §2

[14] = test system: Purple nutsedge; format: in vivo, Cyperus rotundus L.; conditions: Purple nutsedge, postemergence, greenhouse, three weeks, 0-100 scale
Text: as §1, §2

[15] = herbicide 80 g ai/ha + Compound 1 125 g ai/ha

SMILES: COc1cc(OC)nc(NC(=O)NS(=O)(=O)c2ncccc2C(=O)N(C)C)n1 [Nicosulfuron, nicosulfuron]
- Observed Response, Herbicide mixture with Compound 1 [1, 15]: 0
- Observed Response, Herbicide alone ([1]; herbicide 80 g ai/ha): 25
- Observed Response, Herbicide mixture with Compound 1 [2, 15]: 0
- Observed Response, Herbicide alone ([2]; herbicide 80 g ai/ha): 0
- Observed Response, Herbicide mixture with Compound 1 [3, 15]: 60
- Observed Response, Herbicide alone ([3]; herbicide 80 g ai/ha): 60
- Observed Response, Herbicide mixture with Compound 1 [4, 15]: 30
- Observed Response, Herbicide alone ([4]; herbicide 80 g ai/ha): 60
- Observed Response, Herbicide mixture with Compound 1 [5, 15]: 88
- Observed Response, Herbicide alone ([5]; herbicide 80 g ai/ha): 80
- Observed Response, Herbicide mixture with Compound 1 [6, 15]: 50
- Observed Response, Herbicide alone ([6]; herbicide 80 g ai/ha): 80
- Observed Response, Herbicide mixture with Compound 1 [7, 15]: 100
- Observed Response, Herbicide alone ([7]; herbicide 80 g ai/ha): 100
- Observed Response, Herbicide mixture with Compound 1 [8, 15]: 100
- Observed Response, Herbicide alone ([8]; herbicide 80 g ai/ha): 100
- Observed Response, Herbicide mixture with Compound 1 [9, 15]: 100
- Observed Response, Herbicide alone ([9]; herbicide 80 g ai/ha): 100
- Observed Response, Herbicide mixture with Compound 1 [10, 15]: 100
- Observed Response, Herbicide alone ([10]; herbicide 80 g ai/ha): 100
- Observed Response, Herbicide mixture with Compound 1 [11, 15]: 90
- Observed Response, Herbicide alone ([11]; herbicide 80 g ai/ha): 80
- Observed Response, Herbicide mixture with Compound 1 [12, 15]: 100
- Observed Response, Herbicide alone ([12]; herbicide 80 g ai/ha): 100
- Observed Response, Herbicide mixture with Compound 1 [13, 15]: 80
- Observed Response, Herbicide alone ([13]; herbicide 80 g ai/ha): 40
- Observed Response, Herbicide mixture with Compound 1 [14, 15]: 80
- Observed Response, Herbicide alone ([14]; herbicide 80 g ai/ha): 80
